Measurements taken from US9085561B2, “Cyclic urea- or lactam-substituted quinoxaline-type piperidines as ORL-1 modulators” (priority 2012, dated 2015).

How the values were obtained:
[1] = biological target: human opioid receptor-like (ORL-1) (Homo sapiens, UniProt P41146); assay: In vitro ORL-1 receptor [35S]GTPγS functional assay; format: biochemical
human CYP2D6 = human CYP2D6 (Homo sapiens, UniProt P10635); assay: Cytochrome P450 2D6 inhibition (dextromethorphan O-demethylation, pooled human hepatic microsome)
[2] = biological target: human kappa opioid receptor (Homo sapiens, UniProt P41145); assay: In vitro kappa-opioid receptor binding assay ([3H]-U69,593 displacement)
Chain of human kappa opioid receptor (P41145 whole entry): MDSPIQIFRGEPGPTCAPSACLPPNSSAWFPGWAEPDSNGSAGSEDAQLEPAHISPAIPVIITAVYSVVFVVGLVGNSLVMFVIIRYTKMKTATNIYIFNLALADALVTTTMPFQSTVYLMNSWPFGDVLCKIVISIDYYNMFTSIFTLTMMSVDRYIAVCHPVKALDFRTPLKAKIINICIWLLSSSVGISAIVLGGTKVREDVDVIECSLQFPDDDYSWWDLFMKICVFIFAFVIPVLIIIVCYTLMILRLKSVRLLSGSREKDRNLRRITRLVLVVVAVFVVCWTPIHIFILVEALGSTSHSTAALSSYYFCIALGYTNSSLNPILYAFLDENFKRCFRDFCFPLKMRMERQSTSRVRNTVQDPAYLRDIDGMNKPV

Chain of human CYP2D6 (P10635 whole entry): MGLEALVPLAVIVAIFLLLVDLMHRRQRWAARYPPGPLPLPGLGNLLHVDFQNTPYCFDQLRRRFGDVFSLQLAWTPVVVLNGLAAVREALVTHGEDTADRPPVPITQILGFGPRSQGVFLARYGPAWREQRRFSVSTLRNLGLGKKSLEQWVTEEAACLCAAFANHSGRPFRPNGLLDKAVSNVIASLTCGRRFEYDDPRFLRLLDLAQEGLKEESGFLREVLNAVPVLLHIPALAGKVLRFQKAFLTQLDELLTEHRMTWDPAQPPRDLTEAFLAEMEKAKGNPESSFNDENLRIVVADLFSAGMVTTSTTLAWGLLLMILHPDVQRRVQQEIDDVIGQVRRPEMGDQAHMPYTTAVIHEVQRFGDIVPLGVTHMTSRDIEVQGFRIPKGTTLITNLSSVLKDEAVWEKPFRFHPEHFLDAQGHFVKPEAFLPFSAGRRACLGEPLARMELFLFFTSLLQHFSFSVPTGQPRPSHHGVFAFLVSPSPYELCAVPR
Chain of human opioid receptor-like (ORL-1) (P41146 whole entry): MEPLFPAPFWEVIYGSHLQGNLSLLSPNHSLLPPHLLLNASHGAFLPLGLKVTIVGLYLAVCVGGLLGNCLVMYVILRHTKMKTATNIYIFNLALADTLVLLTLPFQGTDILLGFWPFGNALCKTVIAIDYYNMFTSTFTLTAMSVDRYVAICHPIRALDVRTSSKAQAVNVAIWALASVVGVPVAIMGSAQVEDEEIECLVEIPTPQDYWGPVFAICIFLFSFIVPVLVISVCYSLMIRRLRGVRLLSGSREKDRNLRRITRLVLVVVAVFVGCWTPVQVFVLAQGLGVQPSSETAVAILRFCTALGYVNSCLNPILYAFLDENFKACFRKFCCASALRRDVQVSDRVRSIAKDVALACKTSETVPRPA

Structure (SMILES)	EC50 [1]	IC50 (human CYP2D6)	Ki [2]
O=c1cnn(-c2nc3ccccc3n([C@H]3C[C@H]4CCC[C@@H](C3)N4[C@@H]3C[C@@H]4CCCC[C@@H](C4)C3)c2=O)c(=O)[nH]1 [Compound O9b, 2-(4-((1R,3R,5S)-9-((1R,6S,8s)-bicyclo[4.3.1]decan-8-yl)-9-azabicyclo[3.3.1]nonan-3-yl)-3-oxo-3,4-dihydroquinoxalin-2-yl)-1,2,4-triazine-3,5(2H,4H)-dione]	> 20 µM	> 20 µM	–
O=c1ccn(-c2nc3ccccc3n([C@H]3C[C@H]4CCC[C@@H](C3)N4[C@@H]3C[C@@H]4CCCC[C@@H](C4)C3)c2=O)c(=O)[nH]1 [Compound O13b, 1-(4-((1R,3R,5S)-9-((1R,6S,8s)-bicyclo[4.3.1]decan-8-yl)-9-azabicyclo[3.3.1]nonan-3-yl)-3-oxo-3,4-dihydroquinoxalin-2-yl)pyrimidine-2,4(1H,3H)-dione]	> 20 µM	> 20 µM	–
CC1(C)C(=O)NC(=O)N1c1nc2ccccc2n([C@H]2C[C@H]3CCC[C@@H](C2)N3[C@@H]2C[C@@H]3CCCC[C@@H](C3)C2)c1=O [Compound O19a, 1-(4-((1R,3R,5S)-9-((1R,6S,8s)-bicyclo[4.3.1]decan-8-yl)-9-azabicyclo[3.3.1]nonan-3-yl)-3-oxo-3,4-dihydroquinoxalin-2-yl)-5,5-dimethylimidazolidine-2,4-dione]	> 20 µM	> 20 µM	–
O=c1cnn(-c2nc3ccccc3n([C@H]3C[C@H]4COC[C@@H](C3)N4[C@@H]3C[C@@H]4CCCC[C@@H](C4)C3)c2=O)c(=O)[nH]1 [Compound P9b, 2-(4-((1R,5S,7 S)-9-((1R,6S,8s)-bicyclo[4.3.1]decan-8-yl)-3-oxa-9-azabicyclo[3.3.1]nonan-7-yl)-3-oxo-3,4-dihydroquinoxalin-2-yl)-1,2,4-triazine-3,5(2H,4H)-dione]	0.104 ± 0.043 µM	> 20 µM	13.1 µM
Cc1nn(-c2nc3ccccc3n([C@H]3C[C@H]4CCC[C@@H](C3)N4[C@H]3C[C@@H]4CCC[C@@H](C4)C3)c2=O)c(=S)[nH]c1=O [Compound U001, 1-((1R,1′R,3r,3′R,5S,5′S)-[3,9′-bi(9′-azabicyclo[3.3.1]nonan)]-3′-yl)-3-(6-methyl-5-oxo-3-thioxo-4,5-dihydro-1,2,4-triazin-2(3H)-yl)quinoxalin-2(1H)-one]	> 20 µM	> 20 µM	–
O=c1ncc(-c2nc3ccccc3n([C@H]3C[C@H]4CCC[C@@H](C3)N4[C@H]3C[C@@H]4CCC[C@@H](C4)C3)c2=O)c[nH]1 [Compound U048, 1-((1R,1′R,3r,3′R,5S,5′S)-[3,9′-bi(9′-azabicyclo[3.3.1]nonan)]-3′-yl)-3-(2-oxo-1,2-dihydropyrimidin-5-yl)quinoxalin-2(1H)-one]	> 20 µM	> 20 µM	–
O=C(O)CCn1cccc(-c2nc3ccccc3n([C@H]3C[C@H]4CCC[C@@H](C3)N4[C@H]3C[C@@H]4CCC[C@@H](C4)C3)c2=O)c1=O [Compound U057, 3-(3-(4-((1R,1′R,3r,3′R,5S,5′S)-[3,9′-bi(9′-azabicyclo[3.3.1]nonan)]-3′-yl)-3-oxo-3,4-dihydroquinoxalin-2-yl)-2-oxopyridin-1(2H)-yl)propanoic acid]	> 20 µM	> 20 µM	–
Nc1ccn(-c2nc3ccccc3n([C@H]3C[C@H]4CCC[C@@H](C3)N4[C@@H]3C[C@@H]4CCCC[C@@H](C4)C3)c2=O)c(=O)n1 [Compound U068, 3-(4-amino-2-oxopyrimidin-1(2H)-yl)-1-((1R,3R,5S)-9-((1R,6S,8s)-bicyclo[4.3.1]decan-8-yl)-9-azabicyclo[3.3.1]nonan-3-yl)quinoxalin-2(1H)-one]	> 20 µM	> 20 µM	–
O=C(O)Cn1cccc(-c2nc3ccccc3n([C@H]3C[C@H]4CC[C@@H](C3)N4[C@H]3C[C@@H]4CCC[C@@H](C4)C3)c2=O)c1=O [Q13a(iii), 2-(3-(4-((1R,3R,5S)-8-((1R,3r,5S)-bicyclo[3.3.1]nonan-3-yl)-8-azabicyclo[3.2.1]octan-3-yl)-3-oxo-3,4-dihydroquinoxalin-2-yl)-2-oxopyridin-1(2H)-yl)acetic acid]	0.255 ± 0.042 µM	> 20 µM	–
O=c1[nH]cc(F)cc1-c1nc2ccccc2n([C@H]2C[C@H]3CCC[C@@H](C2)N3[C@H]2C[C@@H]3CCC[C@@H](C3)C2)c1=O [R16a(i), 1-((1R,1′R,3r,3′R,5S,5′S)-[3,9′-bi(9′-azabicyclo[3.3.1]nonan)]-3′-yl)-3-(5-fluoro-2-oxo-1,2-dihydropyridin-3-yl)quinoxalin-2(1H)-one]	1.61 ± 0.441 µM	> 20 µM	–
